Assay results reported in patent US12545686B2, “Polymorphic forms of (s)-n-(3-bromo-2-fluorophenyl)-7-((4-methylpiperazin-1-yl)methyl)-7,8-dihydro-[1,4]dioxino[2,3-g]quinazolin-4-amine as EGFR inhibitors” (ERASCA, INC., priority 2021, dated 2026).
In brackets after ≈: the same amount, converted by molar mass.

How the values were obtained:
[1] = pH dependent solubility tests in 0.1 M HCl, citrate buffer and USP phosphate buffers; type: physicochemical; conditions: for solubility: thermodynamic from solid
Method: pH dependent solubility tests were conducted in 0.1 M HCl, in citrate buffer, and in USP phosphate buffers with nominal pH values of 6.8 and 7.4. Solubility tests at pH values below 5 failed because all compounds dissolved during the equilibration phase.

EGFR = EGFR (Homo sapiens, UniProt P00533); conditions: as disclosed in WO 2020/190765; cited from earlier work
[2] = as disclosed in WO 2020/190765; cited from earlier work
[3] = Approximate solubility by incremental addition of solvent; type: physicochemical; conditions: for solubility: thermodynamic from solid
Method: Solubility: Approximate solubilities were determined by incremental addition of solvent to about 10 mg the compound. If the substance was not dissolved by addition of a total of at least 10 ml solvent, the solubility is indicated as <1 mg/ml. Due to the experimental error inherent in this method, the solubility values are intended to be regarded as rough estimates and are to be used solely for the design of crystallization experiments.
Approximate solubilities were determined for amorphous Compound (I) at room temperature. These values were obtained by addition of small aliquots of solvent to small amounts of solid to achieve dissolution by stirring or agitation for a short period of time. […] Ratios for solvent mixtures correspond to volume ratios.
Initially the tests were carried out with the amorphous form Compound (I) and later on, after stable crystalline Form D (Example 7 below) was discovered, some of the tests were repeated with the crystalline form. […] Antisolvents are water, heptane, and TBME. […] Based on available data and further experiments diisopropylether, cyclohexane and methylcyclohexane can also be used as antisolvents.

Aqueous solubility = type: physicochemical; conditions: water, thermodynamic from solid; for solubility at 24 h: equilibration time 24 hours
[4] = Dynamic vapor sorption (DVS), with PXRD and TG-FTIR of the post-DVS sample; type: physicochemical
Method: Dynamic vapor sorption: DVS measurements were performed with an SPS11-100n “Sorptions Prifsystem” from ProUmid (formerly “Projekt Messtechnik”), August-Nagel-Str. 23, 89079 Ulm (Germany). About 5-20 mg of sample was put into an aluminum sample pan. Humidity change rates of 5% per hour were used. The applied measurement program is visualized in the figure (blue trace). The presentations showing the effective water content are corrected.
The sample was placed on an aluminum or platinum holder on top of a microbalance and allowed to equilibrate at 50% RH before starting the pre-defined humidity programs. The measurement program is visualized in the figures of the report.
Classification of Hygroscopicity: The hygroscopicity was classified based on the mass gain at 85% RH relative to the initial mass as follows: deliquescent (sufficient water adsorbed to form a liquid), very hygroscopic (mass increase of ≥15%), hygroscopic (mass increase <15% but ≥2%), slightly hygroscopic (mass increase <2% but ≥0.2%), or non-hygroscopic (mass increase <0.2%).

[5] = Thermogravimetry coupled with FT-IR (TG-FTIR), decomposition; type: physicochemical
Method: TG-FTIR: Thermogravimetric measurements were carried out with a Netzsch Thermo-Microbalance TG 209 coupled to a Bruker FTIR Spectrometer Vector 22 (sample pans with a pinhole, N2 atmosphere, heating rate 10 K/min).

[6] = Solubility tests in potential process solvent mixtures; type: physicochemical; conditions: thermodynamic from solid

Sequence of EGFR (P00533 25-1210): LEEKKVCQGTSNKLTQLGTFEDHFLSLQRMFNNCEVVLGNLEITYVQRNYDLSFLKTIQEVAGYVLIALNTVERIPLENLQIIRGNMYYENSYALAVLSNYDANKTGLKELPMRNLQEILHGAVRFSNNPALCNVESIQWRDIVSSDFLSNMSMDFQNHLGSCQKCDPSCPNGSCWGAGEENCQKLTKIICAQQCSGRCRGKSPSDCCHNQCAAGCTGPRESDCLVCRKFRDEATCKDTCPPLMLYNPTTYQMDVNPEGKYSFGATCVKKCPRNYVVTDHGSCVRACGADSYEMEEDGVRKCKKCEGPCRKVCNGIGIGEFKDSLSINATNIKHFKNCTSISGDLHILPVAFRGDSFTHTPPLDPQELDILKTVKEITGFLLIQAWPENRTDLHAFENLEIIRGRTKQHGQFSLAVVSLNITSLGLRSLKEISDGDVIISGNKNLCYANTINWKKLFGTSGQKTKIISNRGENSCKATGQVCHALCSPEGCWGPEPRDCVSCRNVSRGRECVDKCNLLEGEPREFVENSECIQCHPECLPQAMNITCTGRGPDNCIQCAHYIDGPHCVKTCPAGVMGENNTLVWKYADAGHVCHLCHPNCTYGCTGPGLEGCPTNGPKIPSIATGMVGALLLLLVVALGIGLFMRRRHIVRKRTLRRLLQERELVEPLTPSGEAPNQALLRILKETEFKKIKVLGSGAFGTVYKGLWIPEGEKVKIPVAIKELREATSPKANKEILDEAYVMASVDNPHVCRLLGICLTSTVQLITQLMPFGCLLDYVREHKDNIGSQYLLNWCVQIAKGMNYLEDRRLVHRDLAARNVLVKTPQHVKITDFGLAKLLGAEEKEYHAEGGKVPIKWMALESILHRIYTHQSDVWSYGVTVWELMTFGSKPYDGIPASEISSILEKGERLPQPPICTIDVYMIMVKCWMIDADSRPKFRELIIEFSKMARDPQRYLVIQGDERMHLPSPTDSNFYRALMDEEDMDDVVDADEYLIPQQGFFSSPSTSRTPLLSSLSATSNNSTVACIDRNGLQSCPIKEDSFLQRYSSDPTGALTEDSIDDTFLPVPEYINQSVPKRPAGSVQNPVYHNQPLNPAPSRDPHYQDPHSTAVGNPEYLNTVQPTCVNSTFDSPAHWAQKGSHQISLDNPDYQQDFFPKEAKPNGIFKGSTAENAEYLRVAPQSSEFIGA

Q: Which results are given for `CN1CCN(C[C@H]2COc3cc4ncnc(Nc5cccc(Br)c5F)c4cc3O2)CC1` [Compound (I), (S)—N-(3-bromo-2-fluorophenyl)-7-((4-methylpiperazin-1-yl)methyl)-7,8-dihydro-[1,4]dioxino[2,3-g]quinazolin-4-amine]?
A: Amount of compound that easily dissolves (approximate test) ([1]; in 1.0 ml of 0.1M HCl): ≥ 55 mg; EGFR inhibitory activity (EGFR): good EGFR inhibitory activity; Brain penetration capability [2]: brain penetration capability

Q: Which solubility ([3]; 2-propanol, organic solvent or mixture, Propanol, 2-, room temperature) does the source give for `CN1CCN(C[C@H]2COc3cc4ncnc(Nc5cccc(Br)c5F)c4cc3O2)CC1` [Amorphous form, (S)—N-(3-bromo-2-fluorophenyl)-7-((4-methylpiperazin-1-yl)methyl)-7,8-dihydro-[1,4]dioxino[2,3-g]quinazolin-4-amine] here?
A: > 100 mg/mL

Q: What about the Approximate solubility ([3]; Acetonitrile, room temperature) of the same compound?
A: S > 130 mg/ml

Q: What about the Approximate solubility ([3]; Ethanol/n-heptane (1/3), room temperature) of the same compound?
A: S > 130 mg/ml

Q: And the Approximate solubility ([3]; Isopropyl acetate, room temperature)?
A: S~100 mg/ml

Q: And the solubility ([3]; MEK, organic solvent or mixture, room temperature)?
A: > 100 mg/mL

Q: And the solubility ([3]; TBME, organic solvent or mixture, room temperature)?
A: ~2 mg/mL (≈ 4.1 mM)

Q: What about the solubility ([3]; THF, organic solvent or mixture, room temperature) of the same compound?
A: > 130 mg/mL

Q: What about the solubility ([3]; THF/n-heptane (1/1, v/v), organic solvent or mixture, THF/n-heptane (1/1), room temperature) of the same compound?
A: ~2 mg/mL (≈ 4.1 mM)

Q: What about the Approximate solubility ([3]; Water, room temperature) of the same compound?
A: S < 1 mg/ml

Q: And the “Solubility in the most common organic solvents (in words)” value ([3]; acetic acid, ketones, alcohols, esters, dichloromethane and mixtures thereof)?
A: highly soluble

Q: And the solubility ([3]; acetic acid/water (1/3, v/v), aqueous with cosolvent or surfactant or cyclodextrin, Acetic acid/water (1/3), room temperature)?
A: > 130 mg/mL

Q: What about the solubility ([3]; acetone, organic solvent or mixture, room temperature) of the same compound?
A: > 100 mg/mL

Q: What about the solubility ([3]; acetone/water (1/1, v/v), aqueous with cosolvent or surfactant or cyclodextrin, Acetone/water (1/1), room temperature) of the same compound?
A: > 120 mg/mL

Q: What about the solubility ([3]; acetonitrile/water (1/1, v/v), aqueous with cosolvent or surfactant or cyclodextrin, Acetonitrile/water (1/1), room temperature) of the same compound?
A: > 110 mg/mL

Q: What about the solubility ([3]; anisole, organic solvent or mixture, room temperature) of the same compound?
A: > 160 mg/mL

Q: And the solubility ([3]; dichloromethane, organic solvent or mixture, room temperature)?
A: > 100 mg/mL

Q: What about the solubility ([3]; ethanol, organic solvent or mixture, room temperature) of the same compound?
A: > 100 mg/mL

Q: And the solubility ([3]; ethanol/n-heptane (1/1, v/v), organic solvent or mixture, Ethanol/n-heptane (1/1), room temperature)?
A: > 130 mg/mL

Q: And the solubility ([3]; ethanol/water (1/1, v/v), aqueous with cosolvent or surfactant or cyclodextrin, Ethanol/water (1/1), room temperature)?
A: > 100 mg/mL

Q: What about the solubility ([3]; ethyl acetate, organic solvent or mixture, room temperature) of the same compound?
A: > 100 mg/mL

Q: What about the solubility ([3]; methanol, organic solvent or mixture, room temperature) of the same compound?
A: > 100 mg/mL

Q: What about the solubility ([3]; methanol/TBME (1/2, v/v), organic solvent or mixture, Methanol/TBME (1/2), room temperature) of the same compound?
A: > 140 mg/mL

Q: What about the solubility ([3]; n-heptane, organic solvent or mixture, room temperature) of the same compound?
A: < 1 mg/mL

Q: And the solubility at 24 h (Aqueous solubility; pH 9.27)?
A: 49 µg/mL (≈ 0.1 mM)

Q: What about the solubility at 1 h (Aqueous solubility; equilibration time one hour, pH 9.16) of the same compound?
A: 46 µg/mL (≈ 0.0942 mM)

Q: And the solubility ([1]; USP phosphate buffer (nominal pH 6.8), aqueous buffer, effective pH 6.95)?
A: 316 µg/mL (≈ 0.647 mM)

Q: And the solubility ([1]; USP phosphate buffer (nominal pH 7.4), pH 7.5, aqueous buffer, effective pH 7.50)?
A: 94 µg/mL (≈ 0.192 mM)

Q: And the solubility ([1]; citrate buffer, aqueous buffer, effective pH 6.25)?
A: 9630 µg/mL (≈ 19.7 mM)

Q: What about the Hygroscopicity classification ([4]; DVS, classes based on mass gain at 85% RH relative to initial mass) of the same compound?
A: hygroscopic (hygroscopic (mass increase <15% but ≥2%))

Q: What about the “Solid form of the sample recovered post-DVS (PXRD)” value ([4]; PXRD after DVS) of the same compound?
A: has not changed

Q: And the “Water lost during DVS” value ([4]; approximately same amount as during TG-FTIR)?
A: roughly 1.5%

Q: What about the “Water content at the end of the DVS test” value ([4]; end of test) of the same compound?
A: about 6.4%

Q: What about the “Water content at the high r.h. end during the DVS cycles” value ([4]; high r.h. end) of the same compound?
A: about 15%

Q: And the Decomposition temperature [5]?
A: above 200 °C

Q: Which solubility ([3]; 1-methoxy-2-propanol, organic solvent or mixture, Propanol, 1-methoxy-2-, room temperature) does the source give for `CN1CCN(C[C@H]2COc3cc4ncnc(Nc5cccc(Br)c5F)c4cc3O2)CC1` [Form D, (S)—N-(3-bromo-2-fluorophenyl)-7-((4-methylpiperazin-1-yl)methyl)-7,8-dihydro-[1,4]dioxino[2,3-g]quinazolin-4-amine] here?
A: > 200 mg/mL

Q: And the solubility ([3]; 2-propanol/heptane (1/1, v/v), organic solvent or mixture, Propanol, 2-/heptane 1/1, room temperature)?
A: > 20 mg/mL

Q: And the solubility ([3]; acetone/heptane (1/3, v/v), organic solvent or mixture, Acetone/heptane 1/3, room temperature)?
A: ~7 mg/mL (≈ 14.3 mM)

Q: And the solubility ([3]; ethanol/n-heptane (1/3, v/v), organic solvent or mixture, Ethanol/n-heptane (1/3), room temperature)?
A: > 107 mg/mL

Q: What about the solubility ([3]; ethyl acetate/n-heptane (1/3, v/v), organic solvent or mixture, Ethyl acetate/n-heptane (1/3), room temperature) of the same compound?
A: ~3 mg/mL (≈ 6.14 mM)

Q: And the “Solubility compared with the amorphous form (in words)” value ([3]; in acetonitrile and ethyl acetate)?
A: substantially lower

Q: And the solubility ([3]; isobutyl alcohol, organic solvent or mixture, Isobutylalcohol, room temperature)?
A: > 136 mg/mL

Q: What about the solubility ([3]; isopropyl acetate, organic solvent or mixture, room temperature) of the same compound?
A: 90 to 180 mg/mL (≈ 184 to 369 mM)

Q: And the solubility ([3]; water, room temperature)?
A: < 1 mg/mL

Q: What about the solubility ([6]; 25 °C, aqueous with cosolvent or surfactant or cyclodextrin, Isopropanol - water 1:1) of the same compound?
A: 20.3 mg/mL (≈ 41.6 mM)

Q: And the solubility ([6]; 25 °C, aqueous with cosolvent or surfactant or cyclodextrin, Isopropanol - water 1:3)?
A: 1.2 mg/mL (≈ 2.46 mM)

Q: And the solubility ([6]; 25 °C, organic solvent or mixture, Ethyl acetate - heptane 1:1)?
A: 23.1 mg/mL (≈ 47.3 mM)

Q: What about the solubility ([6]; ethyl acetate - heptane 1:3, 25 °C, organic solvent or mixture) of the same compound?
A: 6.3 mg/mL (≈ 12.9 mM)

Q: And the solubility at 24 h (Aqueous solubility; pH 8.49)?
A: 66 µg/mL (≈ 0.135 mM)

Q: What about the solubility ([1]; USP phosphate buffer (nominal pH 6.8), aqueous buffer, effective pH 6.97) of the same compound?
A: 210 µg/mL (≈ 0.43 mM)

Q: What about the solubility ([1]; USP phosphate buffer (nominal pH 7.4), aqueous buffer, effective pH 7.47) of the same compound?
A: 84 µg/mL (≈ 0.172 mM)

Q: What about the solubility ([1]; citrate buffer, aqueous buffer, effective pH 5.28) of the same compound?
A: 13100 µg/mL (≈ 26.8 mM)

Q: What about the solubility ([1]; citrate buffer, aqueous buffer, effective pH 6.11) of the same compound?
A: 6600 µg/mL (≈ 13.5 mM)

Q: And the “Water uptake in DVS” value ([4]; at 95% relative humidity)?
A: up to 0.8%

Q: And the “Water release in DVS” value ([4]; humidity scanned back to 0% r.h.)?
A: lost all its water
